The subject of one experiment is platelet aggregation.
Assay: not given
The conditions noted are these: hypertensive animals; H. Ostrowska et al., J. Cardiovasc. Pharmacol. 45 (2005); cited from earlier work.
As for `CC[C@@H](C)[C@@H](O)[C@H](C)C(=O)[C@H](C)/C=C(\C)C[C@H](C)[C@@H]1OC(=O)[C@H]1CC` [ebelactone B], the platelet aggregation result is “suppresses platelet aggregation”.

For the next experiment, the target named is T1, Recombinant human cathepsin A (Homo sapiens, UniProt P10619).
T1 construct: Recombinant human cathepsin A (residues 29-480, with a C-terminal 10-His tag); 10-His (C); purchased R&D Systems 1049-SE
T1 sequence (P10619 29-326 limits assumed): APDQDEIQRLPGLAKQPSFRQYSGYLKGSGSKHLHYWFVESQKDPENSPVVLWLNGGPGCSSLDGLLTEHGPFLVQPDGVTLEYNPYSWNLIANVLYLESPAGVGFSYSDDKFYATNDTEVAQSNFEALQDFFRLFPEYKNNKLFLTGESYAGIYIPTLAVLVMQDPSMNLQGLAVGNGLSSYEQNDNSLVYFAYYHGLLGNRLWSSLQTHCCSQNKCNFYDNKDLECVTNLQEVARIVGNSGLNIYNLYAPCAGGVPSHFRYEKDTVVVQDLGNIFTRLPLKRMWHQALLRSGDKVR
T1 sequence (P10619 327-480 limits assumed): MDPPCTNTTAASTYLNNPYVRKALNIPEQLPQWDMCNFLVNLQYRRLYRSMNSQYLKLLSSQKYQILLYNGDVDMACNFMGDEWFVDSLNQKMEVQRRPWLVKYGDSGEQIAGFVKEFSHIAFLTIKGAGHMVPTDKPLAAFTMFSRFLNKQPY
In words: Cathepsin A inhibitory activity. It is filed as biochemical. The settings on record: activated recombinant human cathepsin A 833 ng/ml, Bodipy FL-labeled bradykinin 2 μM, pH 5.5, 15 min room temperature. As for the experimental part: a) Cathepsin a Inhibitory Activity
Recombinant human cathepsin A (residues 29-480, with a C-terminal 10-His tag; R&D Systems, #1049-SE) was proteolytically activated with recombinant human cathepsin L (R&D Systems, #952-CY). Briefly, cathepsin A was incubated at 10 μg/ml with cathepsin L at 1 μg/ml in activation buffer (25 mM 2-(morpholin-4-yl)-ethanesulfonic acid (MES), pH 6.0, containing 5 mM dithiothreitol (DTT)) for 15 min at 37° C. Cathepsin L activity was then stopped by the addition of the cysteine protease inhibitor E-64 (N-(trans-epoxysuccinyl)-L-leucine-4-guanidinobutylamide; Sigma-Aldrich, #E3132; dissolved in activation buffer/DMSO) to a final concentration of 10 μM.
The activated cathepsin A was diluted in assay buffer (25 mM MES, pH 5.5, containing 5 mM DTT) and mixed with the test compound (dissolved in assay buffer containing (v/v) 3% DMSO) or, in the control experiments, with the vehicle in a multiple assay plate. After incubation for 15 min at room temperature, as substrate then bradykinin carrying an N-Terminal®Bodipy FL (4,4-difluoro-5,7-dimethyl-4-bora-3a,4a-diaza-s-indacene-3-propionyl) label (JPT Peptide Technologies GmbH; dissolved in assay buffer) was added to the mixture. The final concentration of cathepsin A was 833 ng/ml and the final concentration of labeled bradykinin 2 μM. After incubation for 15 min at room temperature the reaction was stopped by the addition of stop buffer (130 mM 2-(4-(2-hydroxy-ethyl)-piperazin-1-yl)-ethanesulfonic acid, pH 7.4, containing (v/v) 0.013%®Triton X-100, 0.13% Coating Reagent 3 (Caliper Life Sciences), 6.5% DMSO and 20 μM ebelactone B (Sigma, #E0886)).
Uncleaved substrate and product were then separated by a microfluidic capillary electrophoresis on a LabChip® 3000 Drug Discovery System (12-Sipper-Chip; Caliper Life Sciences) and quantified by determination of the respective peak areas. Substrate turnover was calculated by dividing product peak area by the sum of substrate and product peak areas, and the enzyme activity and the inhibitory effect of the test compound thus quantified. From the percentage of inhibition of cathepsin A activity observed with the test compound at several concentrations, the inhibitory concentration IC50, i.e. the concentration which effects 50% inhibition of enzyme activity was, calculated.
As to `Nc1cc(C(=O)NC(CC(=O)O)c2ccc(-c3ccccn3)cc2)nn1-c1ccccc1F` (centres unmarked) [Example 7, 3-{[5-Amino-1-(2-fluoro-phenyl)-1H-pyrazole-3-carbonyl]-amino}-3-(4-pyridin-2-yl-phenyl)-propionic acid], the IC50 (commonly the point on the concentration scale where inhibition reaches its midpoint) turned out to be 20.4 nM.

For `Cc1ccccc1C(CC(=O)O)NC(=O)c1cc2[nH]c3ccccc3n2n1` (centres unmarked) [Example 35, 3-[(4H-Benzo[4,5]imidazo[1,2-b]pyrazole-2-carbonyl)-amino]-3-o-tolyl-propionic acid], the IC50 came to 900 nM.

Take `Cc1ccccc1[C@H](CC(=O)O)NC(=O)c1cc(N2CCCS2(=O)=O)n(-c2ccccc2)n1` [Example 16, (S)-3-{[5-(1,1-Dioxo-1lambda6-isothiazolidin-2-yl)-1-phenyl-1H-pyrazole-3-carbonyl]-amino}-3-o-tolyl-propionic acid]: the IC50 was 17.9 nM.

For `Cc1ccccc1[C@H](CC(=O)O)NC(=O)c1cc(N2CCCC2=O)n(-c2ccccc2F)n1` [Example 14, (S)-3-{[1-(2-Fluoro-phenyl)-5-(2-oxo-pyrrolidin-1-yl)-1H-pyrazole-3-carbonyl]-amino}-3-o-tolyl-propionic acid], the IC50 came out at 25.8 nM.

`O=C(O)C[C@H](NC(=O)c1cc2[nH]c3ccccc3n2n1)c1ccccc1` [Example 41, (S)-3-[(4H-Benzo[4,5]imidazo[1,2-b]pyrazole-2-carbonyl)-amino]-3-phenyl-propionic acid]: the IC50 amounted to 1230 nM.

Take `Cc1cccc([C@H](CC(=O)O)NC(=O)c2cc3[nH]c4ccccc4n3n2)c1` [Example 39, (S)-3-[(4H-Benzo[4,5]imidazo[1,2-b]pyrazole-2-carbonyl)-amino]-3-m-tolyl-propionic acid]: the IC50 was 940 nM.

On to `Cc1ccccc1[C@H](CC(=O)O)NC(=O)c1cc(NC(=O)c2ccccc2)n(-c2ccccc2)n1` [Example 66, (S)-3-[(5-Benzoylamino-1-phenyl-1H-pyrazole-3-carbonyl)-amino]-3-o-tolyl-propionic acid], for which the IC50 came out at 30.1 nM.

`Cc1ccccc1[C@H](CC(=O)O)NC(=O)c1nn(-c2ccccc2F)c(N)c1C#N` [Example 5, (S)-3-{[5-Amino-4-cyano-1-(2-fluoro-phenyl)-1H-pyrazole-3-carbonyl]-amino}-3-o-tolyl-propionic acid]: the IC50 turned out to be 18.7 nM.

`Cc1ccccc1[C@H](CC(=O)O)NC(=O)c1cc(N2CCCC2)n(-c2ccccc2F)n1` [Example 13, (S)-3-{[1-(2-Fluoro-phenyl)-5-pyrrolidin-1-yl-1H-pyrazole-3-carbonyl]-amino}-3-o-tolyl-propionic acid]: the IC50 worked out at 8.4 nM.

Take `Cc1ccccc1[C@H](CC(=O)O)NC(=O)c1cc(N(C)C(=O)C(C)(C)C)n(-c2ccccc2)n1` [Example 55, (S)-3-({5-[(2,2-Dimethyl-propionyl)-methyl-amino]-1-phenyl-1H-pyrazole-3-carbonyl}-amino)-3-o-tolyl-propionic acid]: the concentration for half-maximal inhibition (IC50) was 17.5 nM.

As to `Cc1ccccc1[C@H](CC(=O)O)NC(=O)c1cc(NCC2CC2)n(-c2ccccc2)n1` [Example 50, (S)-3-{[5-(Cyclopropylmethyl-amino)-1-phenyl-1H-pyrazole-3-carbonyl]-amino}-3-o-tolyl-propionic acid], the IC50 was 49 nM.

Consider `CC(C)(C)C(=O)Nc1cc(C(=O)N[C@@H](CC(=O)O)c2ccccc2Cl)nn1-c1ccccc1` [Example 54, (S)-3-(2-Chloro-phenyl)-3-{[5-(2,2-dimethyl-propionylamino)-1-phenyl-1H-pyrazole-3-carbonyl]-amino}-propionic acid], for which the IC50 turned out to be 31.3 nM.

Take `CC(C)C[C@@H](CC(=O)O)NC(=O)c1cc(NC(=O)c2ccccc2)n(-c2ccccc2)n1` [Example 76, (S)-3-[(5-Benzoylamino-1-phenyl-1H-pyrazole-3-carbonyl)-amino]-5-methyl-hexanoic acid]: the IC50 came out at 22000 nM.

Take `O=C(O)CC(NC(=O)c1cc2[nH]c3ccccc3n2n1)c1ccc(F)cc1` (centres unmarked) [Example 34, 3-[(4H-Benzo[4,5]imidazo[1,2-b]pyrazole-2-carbonyl)-amino]-3-(4-fluoro-phenyl)-propionic acid]: the IC50 was 2520 nM.

In the case of `CN(C(=O)c1ccccc1)c1cc(C(=O)N[C@@H](CC(=O)O)c2cccc(Cl)c2)nn1-c1ccccc1` [Example 71, (S)-3-{[5-(Benzoyl-methyl-amino)-1-phenyl-1H-pyrazole-3-carbonyl]-amino}-3-(3-chloro-phenyl)-propionic acid], the IC50 came out at 56.7 nM.

For `Cc1ccccc1[C@H](CC(=O)O)NC(=O)c1cc(NC(=O)Nc2ccccc2)n(-c2ccccc2)n1` [Example 10, (S)-3-{[1-Phenyl-5-(3-phenyl-ureido)-1H-pyrazole-3-carbonyl]-amino}-3-o-tolyl-propionic acid], the IC50 was 14 nM.

As to `Cc1ccccc1[C@H](CC(=O)O)NC(=O)c1cc(N2CCCC2=O)n(-c2ccccc2)n1` [Example 15, (S)-3-{[5-(2-Oxo-pyrrolidin-1-yl)-1-phenyl-1H-pyrazole-3-carbonyl]-amino}-3-o-tolyl-propionic acid], the half-maximal inhibitory concentration (IC50) worked out at 25.5 nM.

As for `CCNc1cc(C(=O)N[C@@H](CC(=O)O)c2ccccc2C)nn1-c1ccccc1` [Example 85, (S)-3-[(5-Ethylamino-1-phenyl-1H-pyrazole-3-carbonyl)-amino]-3-o-tolyl-propionic acid], the IC50 is 80.2 nM.

Regarding `CC(C)(C)C(=O)Nc1cc(C(=O)N[C@@H](CC(=O)O)c2ccc(Cl)cc2Cl)nn1-c1ccccc1` [Example 53, (S)-3-(2,4-Dichloro-phenyl)-3-{[5-(2,2-dimethyl-propionylamino)-1-phenyl-1H-pyrazole-3-carbonyl]-amino}-propionic acid], the IC50 was 27.1 nM.

The record behind these values is patent US8962671B2, “Amino-substituted 3-heteroaroylamino-propionic acid derivatives and their use as pharmaceuticals” (Sanofi, priority 2011, dated 2015).
